Source: patent publication US6841661B2, “Glycopeptide antibacterial compounds, compositions containing same and methods of using same” (Princeton Univerisity, priority 1999, dated 2005)
≈ marks a conversion by molar mass, not a printed value.

Tests used:
[1] = tested on: E. faecalis CL 5244 (VanB); assay: In vitro MIC panel assay (NCCLS broth microdilution); format: cell-based; conditions: Enterococcus faecalis
Source text: (§1) National Committee for Clinical Laboratory Standards (NCCLS) guidelines [Methods for Dilution Antimicrobial Susceptibility Tests for Bacteria that Grow Aerobically-Fourth Edition; Approved Standard (NCCLS Document M7-A4, January 1997)] are used to establish the assay, although variations are made to optimize the published method according to the specific needs of the present investigation.
(§2) The test panel currently includes eight enterococci and 13 staphylococci, which are selected based upon their antibiotic susceptibility profiles. The methicillin-sensitive Staphylococcus aureus (MSSA) strain MB2985 (Smith isolate) is used to assesses the potential for serum protein binding of the compounds. The paired Gram-negative strains ASP #49 (envA-) and ASP #50 (envA+) (M. Salvatore/N. Lee) are included to judge membrane effects. Table 3 presents a detailed description of the strains included in the panel, including some of the sources of the strains of bacteria.
(§3) The glycopeptide antibiotic teicoplanin is included whenever possible.
(§4) TSB, containing 10% HS* for vancomycin intermediate S. aurcus/methicillin-resistant S. aureus (VISA/MRSA) strains, is inoculated from an appropriate source (frozen broth or agar slant) and grown approximately 17 hr at 35° C. with shaking at 220 rpm. Cultures are grown in tubes with a volume of 5 ml for enterococci and 2 ml for all other strains.
(§5) Four milliliter (4 ml) overnight culture is added to 36 ml physiological saline to obtain tenfold dilutions (enterococci). Overnight culture (0.4 ml) is added to 39.6 ml saline to obtain 100-fold dilutions (all strains except enterococci). Diluted cultures are maintained on ice until time of inoculation of test plates.
(§6) The number of CFU/mL is determined on BHI agar plates, although this is not done routinely because titers of overnight cultures are relatively constant. The test media include: • BHI for enterococci and VISA/MRSA; • MH II (i.e., cation-adjusted Mueller-Hinton broth) for MRS, MSS and E. coli.; • MH II+HSA for MSSA is prepared as follows: • a. 2×MHII+86mg/ml HSA • b. Dissolve 4.3 g HSA in 50 ml autoclaved 2x MH II. • c. pH to 7.0 by adding 2M MOPS, sodium. • d. Filter sterilize using 0.22 μm Coming cellulose acetate filter, used because of reported low protein binding. • e. 1×MH II+43 mg/ml HSA • f. Dilute the 2×medium twofold and filter as above. 5.8.6. Preparation of Test Plates
(§7) Using a Denley liquid handling system (or similar automatic device), 100 μ1×medium is added to each well in columns 2-12 of a 96-well microtiter dish. Using a multichannel pipettor, 100 μl 2×medium is added to each well in column 1. Plates may be filled on the day prior to assay, wrapped in plastic bags and refrigerated.
(§8) Vancomycin, Schering 29482, and teicoplanin are prepared on a weight per volume basis using 10 mM 3-(N-morpholino)propane-sulfonic acid (MOPS) buffer pH 7. Test compounds are received in solution in appropriate solvent (typically as 1 mg/ml in DMSO) or are dissolved in appropriate solvent prior to further dilution in 10 mM MOPS buffer, ph7. Consistent with NCCLS guidelines, antibiotics are handled aseptically but are not otherwise sterilized.
(§9) 100 μl appropriately diluted antibiotic solution is added to the first well of the designated row of the 96-well microtiter dish and serially diluted by twofold across the row using the Denley liquid handling system. With the aid of a Dynatech NEC 2000 inoculator, each well of the microtiter dish is inoculated with 1.5 μl diluted overnight culture, yielding approximately 1-5×10^6 CFU/ml for enterococci and approximately 3-7×10^5 CFU/ml for all other strains. Dishes are placed in stacks of no more than five, wrapped in plastic bags and incubated at 35° C. • Indication of result(s) type (% INH, IC50, Zone size, etc.) • MIC=minimum inhibitory concentration ps 5.8.9. Interpretation of the Results on the Basis of Activity […]

MRCNS CL 3069 (S. epi.) = assay: as above; format: cell-based
Source text: as §1, §2, §3, §4, §5, §6, §7, §8, §9

MRCNS CL 202 (S. haem.) = assay: as above; format: cell-based
Source text: as §1, §2, §3, §4, §5, §6, §7, §8, §9

MRCNS CL 546 (S. hom.) = assay: as above; format: cell-based
Source text: as §1, §2, §3, §4, §5, §6, §7, §8, §9

MRCNS CL 171 (S. haem.) = assay: as above; format: cell-based
Source text: as §1, §2, §3, §4, §5, §6, §7, §8, §9

E. coli ASP #49 (envA-) = assay: as above; format: cell-based; conditions: Escherichia coli
Source text: as §1, §2, §3, §4, §5, §6, §7, §8, §9

[2] = tested on: E. gallinarum CL 4886 (VanC); assay: as above; format: cell-based; conditions: Enterococcus gallinarum
Source text: as §1, §2, §3, §4, §5, §6, §7, §8, §9

[3] = tested on: Staphylococcus aureus strain MB2985; assay: In vivo mouse methicillin-sensitive Staphylococcus aureus septicemia protection; parameters: species or system ICR female mice
Experimental: Selected compounds of the invention are tested in an in vivo mouse model. Single dose subcutaneous antibiotic protection from septicemic infections is measured as described by Gill, C. J., J. J. Jackson, L. Gerckens, B. Pelak, R. Thompson, J. Sundelof, H. Kropp and H. Rosen. Antimicrob. Agents Chemother. 42:1996-2001 (1998). Survival is monitored for seven days. ED50's and LD50's are determined by the method of Knudsen and Curtis. J. Am. Stat. Assoc. 42:282-296 (1947). Septicemia is induced in 20 gram ICR (derived from CD-I) female mice by intraperitoneal infection with Staphylococcus aureus strain MB2985. Infection is given i.p. in Brain Heart Broth (BHB) at an infectious inoculum of 1.8×10^7 cfu/mouse. Drug is administered subcutaneously immediately after the infection is initiated.

MRSA MH 76 = assay: In vitro MIC panel assay (NCCLS broth microdilution); format: cell-based, Staphylococcus aureus; conditions: Staphylococcus aureus, MRSA
Source text: as §1, §2
(§10) The glycopeptide antibiotic teicoplanin is included whenever possible. […]
(§11) The number of CFU/mL is determined on BHI agar plates, although this is not done routinely because titers of overnight cultures are relatively constant. […]

[4] = tested on: MSSA MB2985 (Smith isolate); assay: In vitro MIC panel assay, without and with Human Serum Albumin; format: cell-based, Staphylococcus aureus
Source text: as §1, §2, §10, §11

[5] = mouse septicemia, S. aureus 2985 i.p. 1.8 × 10^7 cfu/mouse, single s.c. dose at 0 hr, survival seven days

Work on `CN[C@H](CC(C)C)C(=O)N[C@H]1C(=O)N[C@@H](CC(N)=O)C(=O)N[C@H]2C(=O)N[C@H]3C(=O)N[C@H](C(=O)N[C@H](C(=O)O)c4cc(O)cc(O)c4-c4cc3ccc4O)[C@H](O)c3ccc(c(Cl)c3)Oc3cc2cc(c3O[C@@H]2O[C@H](CO)[C@@H](O)[C@H](O)[C@H]2O[C@H]2C[C@](C)(N)[C@H](O)[C@H](C)O2)Oc2ccc(cc2Cl)[C@H]1O` [Vancomycin, vancomycin, reference compound] yielded an MIC [1] of 32 µg/mL (≈ 22.1 µM), an MIC (MRCNS CL 3069 (S. epi.)) of 2 µg/mL (≈ 1.38 µM) and an MIC (MRCNS CL 202 (S. haem.)) of 2 µg/mL (≈ 1.38 µM). It also gave an MIC (MRCNS CL 546 (S. hom.)) of 1 µg/mL (≈ 0.69 µM), an MIC (MRCNS CL 171 (S. haem.)) of 2 µg/mL (≈ 1.38 µM) and an MIC (E. coli ASP #49 (envA-)) of 32 µg/mL (≈ 22.1 µM). For the same compound, the MIC [2] was 16 µg/mL (≈ 11 µM), the ED50/MIC ([3]; S. aureus 2985, ratio of s.c. ED50 to MIC) was 2.33 and the ED50 ([3]; Staphylococcus aureus, MB2985, mouse septicemia, S. aureus 2985 i.p. 1.8 × 10^7 cfu/mouse, single s.c. dose at 0 hr, survival seven days) was 1.17 mg/kg. For the same compound, the “ED0 (s.c.)” value [3, 5] was “≦0.195 mg/kg”, the “ED100 (s.c.)” value [3, 5] was 3.125 mg/kg and the MIC (MRSA MH 76) was 1 µg/mL (≈ 0.69 µM). The MIC ([4]; MSSA MB2985 + HSA, MH II broth ctg. 43 mg/ml Human Serum Albumin Frac. V) was 1 µg/mL and the “N-fold MIC inc. + HSA” value ([4]; MSSA MB2985, MIC with HSA relative to without) was “(1) fold”.
